ChEMBL document CHEMBL1201862, “PubChem BioAssay data set” (2004)
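Briefly, cells in 96-well plates were exposed to five compound concentrations for 48 h, and endpoints were estimated by linear interpolation. Here, GI50 denotes the concentration required for 50% inhibition of growth.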 Active and inactive are the calls of the source. Cut-off read from the data, not from the text of the source: active = GI50 up to about 1.1 µM and inactive = higher.

Tests used:
Test in all cases: DTP human tumour cell line panel, 48 h
SF-268 = test system: SF-268
K562 = test system: K562
DU-145 = test system: DU-145
OVCAR-5 = test system: OVCAR-5
U-251 = test system: U-251
786-0 = test system: 786-0
UACC-257 = test system: UACC-257
OVCAR-3 = test system: OVCAR-3
ACHN = test system: ACHN
SF-539 = test system: SF-539
SK-MEL-5 = test system: SK-MEL-5
A549 = test system: A549
OVCAR-8 = test system: OVCAR-8
CAKI-1 = test system: CAKI-1
HCT-15 = test system: HCT-15
SW-620 = test system: SW-620
HCT-116 = test system: HCT-116
HT-29 = test system: HT-29
T47D = test system: T47D
Malme-3M = test system: Malme-3M
SNB-75 = test system: SNB-75
NCI-H522 = test system: NCI-H522
SF-295 = test system: SF-295
PC-3 = test system: PC-3
TK-10 = test system: TK-10
OVCAR-4 = test system: OVCAR-4
A498 = test system: A498
RXF 393 = test system: RXF 393
SN12C = test system: SN12C
UACC-62 = test system: UACC-62
EKVX = test system: EKVX
SNB-19 = test system: SNB-19
HOP-92 = test system: HOP-92
Hs-578T = test system: Hs-578T
CCRF-CEM = test system: CCRF-CEM
NCI-H23 = test system: NCI-H23
SK-MEL-28 = test system: SK-MEL-28
NCI/ADR-RES = test system: NCI/ADR-RES
IGROV-1 = test system: IGROV-1
MCF7 = test system: MCF7
UO-31 = test system: UO-31
KM12 = test system: KM12
NCI-H226 = test system: NCI-H226
SR = test system: SR
NCI-H460 = test system: NCI-H460
MOLT-4 = test system: MOLT-4
HL-60 = test system: HL-60
MDA-MB-435 = test system: MDA-MB-435
M14 = test system: M14
HOP-62 = test system: HOP-62
MDA-N = test system: MDA-N
SK-OV-3 = test system: SK-OV-3
MDA-MB-231 = test system: MDA-MB-231
SK-MEL-2 = test system: SK-MEL-2
COLO 205 = test system: COLO 205
RPMI-8226 = test system: RPMI-8226
LOX IMVI = test system: LOX IMVI
HCC 2998 = test system: HCC 2998

Which GI50 (SF-268) does the source give for `COC(=O)C1(NC(=O)C(N)CC(=O)O)C(C)C1C` (stereo not given) here?
Its GI50 is > 100 µM (inactive).

And the GI50 (K562)?
Its GI50 is > 100 µM (inactive).

And the GI50 (DU-145)?
The GI50 was > 100 µM (inactive).

And the GI50 (OVCAR-5)?
Its GI50 is > 100 µM (inactive).

And the GI50 (U-251)?
Its GI50 is > 100 µM (inactive).

What about the GI50 (786-0) of the same compound?
Its GI50 is > 100 µM (inactive).

And the GI50 (UACC-257)?
Its GI50 is > 100 µM (inactive).

What about the GI50 (OVCAR-3) of the same compound?
The GI50 was > 100 µM (inactive).

What about the GI50 (ACHN) of the same compound?
The GI50 was > 100 µM (inactive).

What about the GI50 (SF-539) of the same compound?
The GI50 was > 100 µM (inactive).

And the GI50 (SK-MEL-5)?
The GI50 was > 100 µM (inactive).

And the GI50 (A549)?
The GI50 was > 100 µM (inactive).

What about the GI50 (OVCAR-8) of the same compound?
Its GI50 is > 100 µM (inactive).

What about the GI50 (CAKI-1) of the same compound?
Its GI50 is > 100 µM (inactive).

What about the GI50 (HCT-15) of the same compound?
Its GI50 is over 100 µM.

And the GI50 (SW-620)?
The GI50 was > 100 µM (inactive).

What about the GI50 (HCT-116) of the same compound?
The GI50 was > 100 µM (inactive).

What about the GI50 (HT-29) of the same compound?
Its GI50 is > 100 µM (inactive).

And the GI50 (T47D)?
The GI50 was > 100 µM (inactive).

And the GI50 (Malme-3M)?
The GI50 was > 100 µM (inactive).

And the GI50 (SNB-75)?
The GI50 was > 100 µM (inactive).

What about the GI50 (NCI-H522) of the same compound?
Its GI50 is > 100 µM (inactive).

What about the GI50 (SF-295) of the same compound?
The GI50 was > 100 µM (inactive).

What about the GI50 (PC-3) of the same compound?
The GI50 was > 100 µM (inactive).

What about the GI50 (TK-10) of the same compound?
The GI50 was > 100 µM (inactive).

What about the GI50 (OVCAR-4) of the same compound?
Its GI50 is > 100 µM (inactive).

What about the GI50 (A498) of the same compound?
The GI50 was > 100 µM (inactive).

What about the GI50 (RXF 393) of the same compound?
The GI50 was > 100 µM (inactive).

What about the GI50 (SN12C) of the same compound?
Its GI50 is > 100 µM (inactive).

What about the GI50 (UACC-62) of the same compound?
Its GI50 is > 100 µM (inactive).

What about the GI50 (EKVX) of the same compound?
Its GI50 is > 100 µM (inactive).

And the GI50 (SNB-19)?
Its GI50 is > 100 µM (inactive).

What about the GI50 (HOP-92) of the same compound?
The GI50 was > 100 µM (inactive).

And the GI50 (Hs-578T)?
Its GI50 is > 100 µM (inactive).

What about the GI50 (CCRF-CEM) of the same compound?
Its GI50 is > 100 µM (inactive).

What about the GI50 (NCI-H23) of the same compound?
The GI50 was > 100 µM (inactive).

What about the GI50 (SK-MEL-28) of the same compound?
Its GI50 is > 100 µM (inactive).

And the GI50 (NCI/ADR-RES)?
Its GI50 is > 100 µM (inactive).

And the GI50 (IGROV-1)?
Its GI50 is > 100 µM (inactive).

And the GI50 (MCF7)?
The GI50 was > 100 µM (inactive).

What about the GI50 (UO-31) of the same compound?
The GI50 was > 100 µM (inactive).

What about the GI50 (KM12) of the same compound?
Its GI50 is > 100 µM (inactive).

And the GI50 (NCI-H226)?
The GI50 was > 100 µM (inactive).

And the GI50 (SR)?
Its GI50 is > 100 µM (inactive).

And the GI50 (NCI-H460)?
The GI50 was > 100 µM (inactive).

And the GI50 (MOLT-4)?
Its GI50 is > 100 µM (inactive).

And the GI50 (HL-60)?
Its GI50 is > 100 µM (inactive).

What about the GI50 (MDA-MB-435) of the same compound?
Its GI50 is > 100 µM (inactive).

What about the GI50 (M14) of the same compound?
Its GI50 is > 100 µM (inactive).

What about the GI50 (HOP-62) of the same compound?
Its GI50 is > 100 µM (inactive).

What about the GI50 (MDA-N) of the same compound?
Its GI50 is > 100 µM (inactive).

And the GI50 (SK-OV-3)?
Its GI50 is > 100 µM (inactive).

What about the GI50 (MDA-MB-231) of the same compound?
The GI50 was > 100 µM (inactive).

And the GI50 (SK-MEL-2)?
Its GI50 is > 100 µM (inactive).

What about the GI50 (COLO 205) of the same compound?
The GI50 was > 100 µM (inactive).

What about the GI50 (RPMI-8226) of the same compound?
Its GI50 is > 100 µM (inactive).

And the GI50 (LOX IMVI)?
The GI50 was > 100 µM (inactive).

For `C=CCOC(=O)Cn1cnc2c(N)ncnc21`, which GI50 (SF-268) is on record?
The GI50 was > 100 µM (inactive).

What about the GI50 (K562) of the same compound?
The GI50 was > 100 µM (inactive).

And the GI50 (DU-145)?
Its GI50 is > 100 µM (inactive).

What about the GI50 (U-251) of the same compound?
Its GI50 is > 100 µM (inactive).

And the GI50 (786-0)?
The GI50 was > 100 µM (inactive).

What about the GI50 (UACC-257) of the same compound?
The GI50 was > 100 µM (inactive).

What about the GI50 (HCC 2998) of the same compound?
Its GI50 is > 100 µM (inactive).

What about the GI50 (ACHN) of the same compound?
Its GI50 is > 100 µM (inactive).

What about the GI50 (SF-539) of the same compound?
The GI50 was > 100 µM (inactive).

What about the GI50 (SK-MEL-5) of the same compound?
The GI50 was > 100 µM (inactive).

What about the GI50 (A549) of the same compound?
Its GI50 is > 100 µM (inactive).

What about the GI50 (OVCAR-8) of the same compound?
Its GI50 is > 100 µM (inactive).

What about the GI50 (CAKI-1) of the same compound?
Its GI50 is > 100 µM (inactive).

What about the GI50 (HCT-15) of the same compound?
The GI50 was over 100 µM.

And the GI50 (SW-620)?
The GI50 was > 100 µM (inactive).

And the GI50 (HCT-116)?
Its GI50 is > 100 µM (inactive).

And the GI50 (HT-29)?
The GI50 was > 100 µM (inactive).

And the GI50 (T47D)?
Its GI50 is > 100 µM (inactive).

And the GI50 (Malme-3M)?
Its GI50 is > 100 µM (inactive).

What about the GI50 (SNB-75) of the same compound?
Its GI50 is > 100 µM (inactive).

What about the GI50 (SF-295) of the same compound?
Its GI50 is > 100 µM (inactive).

What about the GI50 (PC-3) of the same compound?
Its GI50 is > 100 µM (inactive).

And the GI50 (TK-10)?
The GI50 was > 100 µM (inactive).

What about the GI50 (OVCAR-4) of the same compound?
Its GI50 is > 100 µM (inactive).

What about the GI50 (A498) of the same compound?
The GI50 was > 100 µM (inactive).

And the GI50 (SN12C)?
The GI50 was > 100 µM (inactive).

What about the GI50 (UACC-62) of the same compound?
Its GI50 is > 100 µM (inactive).

And the GI50 (EKVX)?
The GI50 was > 100 µM (inactive).

What about the GI50 (SNB-19) of the same compound?
The GI50 was > 100 µM (inactive).

And the GI50 (Hs-578T)?
Its GI50 is > 100 µM (inactive).

What about the GI50 (CCRF-CEM) of the same compound?
Its GI50 is > 100 µM (inactive).

What about the GI50 (NCI-H23) of the same compound?
Its GI50 is > 100 µM (inactive).

And the GI50 (SK-MEL-28)?
The GI50 was > 100 µM (inactive).

And the GI50 (NCI/ADR-RES)?
Its GI50 is > 100 µM (inactive).

And the GI50 (IGROV-1)?
The GI50 was > 100 µM (inactive).

And the GI50 (MCF7)?
The GI50 was > 100 µM (inactive).

And the GI50 (UO-31)?
The GI50 was > 100 µM (inactive).

And the GI50 (KM12)?
The GI50 was > 100 µM (inactive).

What about the GI50 (NCI-H226) of the same compound?
The GI50 was > 100 µM (inactive).

What about the GI50 (SR) of the same compound?
The GI50 was > 100 µM (inactive).

And the GI50 (NCI-H460)?
Its GI50 is > 100 µM (inactive).

And the GI50 (MOLT-4)?
Its GI50 is > 100 µM (inactive).

What about the GI50 (HL-60) of the same compound?
Its GI50 is > 100 µM (inactive).

And the GI50 (MDA-MB-435)?
The GI50 was > 100 µM (inactive).

And the GI50 (M14)?
The GI50 was > 100 µM (inactive).

What about the GI50 (HOP-62) of the same compound?
The GI50 was > 100 µM (inactive).

And the GI50 (MDA-N)?
The GI50 was > 100 µM (inactive).

And the GI50 (SK-OV-3)?
Its GI50 is > 100 µM (inactive).

And the GI50 (MDA-MB-231)?
The GI50 was > 100 µM (inactive).

What about the GI50 (SK-MEL-2) of the same compound?
The GI50 was > 100 µM (inactive).

And the GI50 (COLO 205)?
The GI50 was > 100 µM (inactive).

What about the GI50 (RPMI-8226) of the same compound?
Its GI50 is > 100 µM (inactive).

What about the GI50 (LOX IMVI) of the same compound?
Its GI50 is > 100 µM (inactive).
